Experimental data: patent US5329010A, “Quinone derivatives” (Eisai Co., Ltd., priority 1991, dated 1994)

Tests used:
[1] = test system: production of leukotriene B4 (LTB4), rat abdominal glycogenic infiltration cell; experiment: Inhibitory activity against production of leukotriene B4 (LTB4) from rat abdominal infiltration cell; assay type: cell-based, rat (Fisher male); settings: 10 min, cells 5×10^6/ml, calcium ionophore A-23187 2 μg/ml, 37° C., enzyme immunoassay
Method: (§1) Inhibitory activity against the production of leukotriene B4 (LTB4) and thromboxane B2 (TxB2 from rat abdominal infiltration cell
(§2) 10 ml of a 6% (w/v) solution of glycogen (Type II from Oyster, Sigma) in physiological saline was injected into the abdominal cavity of a Fisher male rat having a weight of 150 to 200 g. After 20 to 24 hours, the abdominal exudation cells were recovered therefrom, washed and suspended in the Hanks' balanced salt solution (HBSS) in a concentration of 5×10^6 /ml. This suspension was poured onto a 96-well culture plate (Costar: registered trademark) in which a test drug diluted to a predetermined concentration had been put in an amount of 10 μl/well, in an amount of 100 μl/well. The resulting plate was incubated at 37° C. for 5 minutes. Calcium ionophore A-23187 [Calbiochem (registered trademark)] was added in a final concentration of 2 μg/ml. After the reaction at 37° C. for additional 10 minutes, the plate was put on ice and a BW755C solution was added in a final concentration of 100 μM. The resulting plate was centrifuged at 15000 rpm for 10 minutes. The supernatant was recovered and the amounts of LTB4 and TxB2 in the supernatant were determined by enzyme immunoassay with an EIA kit mfd. by Cayman.

[2] = Repetitive Oral Administration Test for 4 Weeks on Rats; assay type: in vivo, rat (female Slc:SD); settings: once a day, each of 30 and 100 mg/kg
Method: Repetitive Oral Administration Test for 4 Weeks on Rats
30 and 100 mg/kg of the compound obtained in the Example 3 was orally administered to female Slc:SD rats aged 7 weeks (each group consisting of 5 animals) for 4 weeks. This compound was suspended in a 0.5 wt. % aqueous solution of methylcellulose and administered once a day.
During the administration period, the general conditions of the animals were observed and the body weight and feed intake were measured. After the completion of the final administration, hematological examination, hemo-biochemical examination, urinalysis and autopsy were effected and organs were weighed. Further, livers and kidneys were patho-histologicallyexamined under an optical microscope.

[3] = Repetitive Oral Administration Test for 4 Weeks on Dogs; design: species or system dog (female beagle); settings: in vivo, concluded after rat and dog tests, read-out: toxicologically non-influential dose
Method: Repetitive Oral Administration Test for 4 Weeks on Dogs
30 and 100 mg/kg of the compound obtained in the Example 3 was orally administered to female beagles aged 8 months (each group consisting of 2 animals) for 4 weeks. This compound was triturated with lactose and administered once a day.
During the administration period, the general conditions of the animals were observed and the body weight and feed intake were measured. After the completion of the first, seventh and final administrations, hemo-biochemical examination was effected. After the completion of the seventh and final administrations, further, hematological examination and urinalysis were effected. Furthermore, autopsy was effected and organs were weighed after the final administration. Livers, kidneys and adrenal bodies were patho-histologically examined under an optical microscope.

[4] = test system: production of thromboxane B2 (TxB2), rat abdominal glycogenic infiltration cell; experiment: Inhibitory activity against production of thromboxane B2 (TxB2) from rat abdominal infiltration cell; assay type: cell-based, rat (Fisher male); settings: 10 min, cells 5×10^6/ml, calcium ionophore A-23187 2 μg/ml, 37° C., enzyme immunoassay
Method: as §1, §2
(Thromboxane A2 is very unstable to treat and naturally turns to thromboxane B2 in 10-20 seconds in the human body. Therefore, thromboxane B2 was used in the tests above).

COC1=C(C)C(=O)C(/C=C(\CCCCCc2cccnc2)C(=O)O)=C(C)C1=O [Ex. 3, (E)-3-(2-Methoxy-3,6-dimethyl-1,4-benzoquinon-5-yl)-2-[5-(3-pyridyl)pentyl]-2-propenoic acid]
IC50 [1]: 1160 nM | change in general conditions, body weight, feed intake, hematology, hemo-biochemistry, urinalysis, autopsy, organ weight, histology [2]: No change was observed | NOAEL at 672 h [3]: 100 mg/kg | IC50 [4]: 50 nM

COc1c(C)c(O)c(/C=C(\CCCCCc2cccnc2)C(=O)O)c(C)c1O [Ex. 4, (E)-3-(2,5-Dihydroxy-4-methoxy-3,6-dimethylphenyl)-2-[5-(3-pyridyl)pentyl]-2-propenoic acid]
IC50 [1]: 7860 nM | IC50 [4]: 460 nM

CCCCCCCOc1c(C)c(OC)c(/C=C(\CCCCCc2cccnc2)C(=O)OCC)c(C)c1OC [Ex. 5]
IC50 [1]: 3160 nM | IC50 [4]: 480 nM

CCCCOc1c(C)c(OC)c(C)c(/C=C(\CCCCCc2cccnc2)C(=O)OCC)c1OC [Ex. 7]
IC50 [1]: 1390 nM | IC50 [4]: 90 nM

CCCCCCCOc1c(C)c(OC)c(C)c(/C=C(\CCCCCc2cccnc2)C(=O)OCC)c1OC [Ex. 9]
IC50 [1]: 3160 nM | IC50 [4]: 160 nM

CCOC(=O)/C(=C/c1c(C)c(OC)c(OC)c(C)c1OC)CCCc1cccnc1 [Ex. 10]
IC50 [1]: 320 nM | IC50 [4]: 420 nM
